Article PMC4577729, “7-(Pyrazol-4-yl)-3H-imidazo[4,5-b]pyridine-based derivatives for kinase inhibition: Co-crystallisation studies with Aurora-A reveal distinct differences in the orientation of the pyrazole N1-substituent” (Bioorganic & Medicinal Chemistry Letters, 2015)

How the values were obtained:
Assay in all cases: Kinase selectivity profiling
Format in all cases: biochemical
[1] = molecular target: T1, ERK8 (Homo sapiens, UniProt Q8TD08); conditions: for ERK8 inhibition: 1 μM; for ERK8 % activity remaining: 1 µM, assay duplicates
T1 sequence (Q8TD08 1-544): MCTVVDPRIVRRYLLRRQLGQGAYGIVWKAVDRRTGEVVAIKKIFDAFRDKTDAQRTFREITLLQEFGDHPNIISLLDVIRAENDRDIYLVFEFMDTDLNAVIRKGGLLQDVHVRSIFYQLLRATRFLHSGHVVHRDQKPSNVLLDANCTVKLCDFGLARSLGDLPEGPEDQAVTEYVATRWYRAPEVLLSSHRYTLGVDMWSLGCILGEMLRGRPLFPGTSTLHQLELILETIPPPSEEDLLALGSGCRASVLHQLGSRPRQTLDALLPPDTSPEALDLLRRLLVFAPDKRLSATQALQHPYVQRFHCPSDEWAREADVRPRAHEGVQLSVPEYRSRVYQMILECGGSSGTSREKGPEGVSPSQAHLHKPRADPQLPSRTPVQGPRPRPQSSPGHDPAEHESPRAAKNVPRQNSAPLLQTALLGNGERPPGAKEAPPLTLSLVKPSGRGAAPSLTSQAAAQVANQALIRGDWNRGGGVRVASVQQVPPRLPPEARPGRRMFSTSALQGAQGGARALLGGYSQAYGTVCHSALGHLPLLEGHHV
Procedure: (§1) [20] Kinase selectivity profiling for compounds 7a, 7d, 14d and 14g was carried out at the International Centre for Protein Kinase Profiling, Division of Signal Transduction Therapy, University of Dundee.
(§2) Table S1: Kinase selectivity profiling of compounds 7a and 7d in a 102-kinase panel screened at a concentration of 1 µM.
(§3) Table S2: Kinase selectivity profiling of compounds 14d and 14g in a 105-kinase panel screened at a concentration of 1 µM.

[2] = molecular target: HIPK3 (Homo sapiens, UniProt Q9H422); conditions: 1 µM, assay duplicates
Chain of HIPK3 (Q9H422 whole entry): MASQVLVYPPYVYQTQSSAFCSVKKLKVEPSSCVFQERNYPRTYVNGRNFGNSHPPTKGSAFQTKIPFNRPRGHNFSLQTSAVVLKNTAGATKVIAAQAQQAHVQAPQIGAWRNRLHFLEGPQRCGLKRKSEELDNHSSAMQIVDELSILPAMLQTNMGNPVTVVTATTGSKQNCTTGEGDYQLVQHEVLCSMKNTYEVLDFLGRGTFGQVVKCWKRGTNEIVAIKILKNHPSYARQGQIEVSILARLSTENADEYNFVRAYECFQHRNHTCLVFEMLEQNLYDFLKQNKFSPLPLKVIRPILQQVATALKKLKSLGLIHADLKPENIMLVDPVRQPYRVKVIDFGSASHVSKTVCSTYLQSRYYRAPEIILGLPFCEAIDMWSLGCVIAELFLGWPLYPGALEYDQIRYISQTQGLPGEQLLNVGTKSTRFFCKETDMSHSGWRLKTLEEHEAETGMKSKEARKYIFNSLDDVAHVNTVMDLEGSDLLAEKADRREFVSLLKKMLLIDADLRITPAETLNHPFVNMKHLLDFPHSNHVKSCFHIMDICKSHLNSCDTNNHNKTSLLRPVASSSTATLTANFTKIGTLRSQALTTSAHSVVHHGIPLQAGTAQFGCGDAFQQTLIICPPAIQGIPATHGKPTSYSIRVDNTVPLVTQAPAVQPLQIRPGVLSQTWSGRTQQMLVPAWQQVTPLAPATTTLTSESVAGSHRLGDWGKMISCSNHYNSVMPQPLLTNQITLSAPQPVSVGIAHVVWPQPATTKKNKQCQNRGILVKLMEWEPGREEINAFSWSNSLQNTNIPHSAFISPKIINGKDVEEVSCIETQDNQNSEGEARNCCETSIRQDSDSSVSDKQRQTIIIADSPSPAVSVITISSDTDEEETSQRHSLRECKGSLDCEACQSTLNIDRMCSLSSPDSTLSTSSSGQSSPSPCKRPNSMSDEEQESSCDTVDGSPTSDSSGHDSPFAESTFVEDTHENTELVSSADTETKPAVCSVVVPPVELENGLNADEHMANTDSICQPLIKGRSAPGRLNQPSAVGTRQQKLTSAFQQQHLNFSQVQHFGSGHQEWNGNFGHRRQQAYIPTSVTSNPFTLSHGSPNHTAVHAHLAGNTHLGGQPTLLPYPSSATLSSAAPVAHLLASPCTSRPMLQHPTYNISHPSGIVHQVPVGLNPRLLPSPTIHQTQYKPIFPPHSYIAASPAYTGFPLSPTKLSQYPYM
Procedure: as §1, §2, §3

[3] = molecular target: HIPK1 (Homo sapiens, UniProt Q86Z02); conditions: 1 µM, assay duplicates
Procedure: as §1, §2, §3

[4] = molecular target: PRAK (Homo sapiens, UniProt Q8IW41); conditions: 1 µM, assay duplicates
Procedure: as §1, §2, §3

[5] = molecular target: MINK1 (Homo sapiens, UniProt Q8N4C8); conditions: 1 µM, assay duplicates
Procedure: as §1, §2, §3

[6] = molecular target: MLK3 (Homo sapiens, UniProt Q16584); conditions: 1 µM, assay duplicates
Procedure: as §1, §2, §3

[7] = molecular target: T2, Aurora A (Homo sapiens, UniProt O14965); conditions: 1 µM, assay duplicates
T2 sequence (O14965 1-403): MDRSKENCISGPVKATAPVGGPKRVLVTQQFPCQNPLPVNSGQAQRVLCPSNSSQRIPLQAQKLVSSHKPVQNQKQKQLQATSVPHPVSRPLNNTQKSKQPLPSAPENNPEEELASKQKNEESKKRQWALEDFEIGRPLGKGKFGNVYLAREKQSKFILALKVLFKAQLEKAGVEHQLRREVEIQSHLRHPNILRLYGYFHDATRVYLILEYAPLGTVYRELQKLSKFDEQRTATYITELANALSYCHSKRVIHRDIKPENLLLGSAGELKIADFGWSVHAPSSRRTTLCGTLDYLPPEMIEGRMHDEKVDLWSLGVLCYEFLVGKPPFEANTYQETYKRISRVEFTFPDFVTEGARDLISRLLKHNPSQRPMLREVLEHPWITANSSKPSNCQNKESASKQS
Procedure: as §1, §2, §3

[8] = molecular target: SGK1 (Homo sapiens, UniProt O00141); conditions: 1 µM, assay duplicates
Procedure: as §1, §2, §3

[9] = molecular target: PAK2 (Homo sapiens, UniProt Q13177); conditions: 1 µM, assay duplicates
Procedure: as §1, §2, §3

[10] = molecular target: MNK1 (Homo sapiens, UniProt Q9BUB5); conditions: 1 µM, assay duplicates
Procedure: as §1, §2, §3

[11] = molecular target: CHK2 (Homo sapiens, UniProt O96017); conditions: 1 µM, assay duplicates
Chain of CHK2 (O96017 whole entry): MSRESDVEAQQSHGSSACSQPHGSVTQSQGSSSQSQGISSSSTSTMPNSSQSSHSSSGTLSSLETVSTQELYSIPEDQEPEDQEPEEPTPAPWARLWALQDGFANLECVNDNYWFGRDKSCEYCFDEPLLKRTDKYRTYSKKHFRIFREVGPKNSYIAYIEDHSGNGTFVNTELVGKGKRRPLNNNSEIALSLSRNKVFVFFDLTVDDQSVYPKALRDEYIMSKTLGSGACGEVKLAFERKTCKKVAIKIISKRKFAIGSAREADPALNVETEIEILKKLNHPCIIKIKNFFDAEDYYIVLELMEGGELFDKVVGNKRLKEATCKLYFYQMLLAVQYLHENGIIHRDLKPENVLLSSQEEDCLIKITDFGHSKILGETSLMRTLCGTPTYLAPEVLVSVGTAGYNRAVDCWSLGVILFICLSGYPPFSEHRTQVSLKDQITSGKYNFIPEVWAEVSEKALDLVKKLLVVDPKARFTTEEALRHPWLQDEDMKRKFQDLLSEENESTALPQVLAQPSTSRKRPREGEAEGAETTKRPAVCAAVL
Procedure: as §1, §2, §3

[12] = molecular target: p38d MAPK (Homo sapiens, UniProt O15264); conditions: 1 µM, assay duplicates
Chain of p38d MAPK (O15264 whole entry): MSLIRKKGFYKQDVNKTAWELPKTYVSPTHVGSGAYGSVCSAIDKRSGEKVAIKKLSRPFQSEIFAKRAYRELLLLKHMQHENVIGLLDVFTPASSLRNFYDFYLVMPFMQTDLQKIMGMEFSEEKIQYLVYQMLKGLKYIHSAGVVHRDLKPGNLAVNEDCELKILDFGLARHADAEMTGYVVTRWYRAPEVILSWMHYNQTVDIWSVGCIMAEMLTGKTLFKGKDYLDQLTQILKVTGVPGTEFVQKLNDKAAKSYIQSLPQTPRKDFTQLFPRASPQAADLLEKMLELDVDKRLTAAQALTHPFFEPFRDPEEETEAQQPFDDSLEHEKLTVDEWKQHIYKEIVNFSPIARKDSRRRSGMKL
Procedure: as §1, §2, §3

[13] = molecular target: Lck (Homo sapiens, UniProt P06239); conditions: 1 µM, assay duplicates
Chain of Lck (P06239 whole entry): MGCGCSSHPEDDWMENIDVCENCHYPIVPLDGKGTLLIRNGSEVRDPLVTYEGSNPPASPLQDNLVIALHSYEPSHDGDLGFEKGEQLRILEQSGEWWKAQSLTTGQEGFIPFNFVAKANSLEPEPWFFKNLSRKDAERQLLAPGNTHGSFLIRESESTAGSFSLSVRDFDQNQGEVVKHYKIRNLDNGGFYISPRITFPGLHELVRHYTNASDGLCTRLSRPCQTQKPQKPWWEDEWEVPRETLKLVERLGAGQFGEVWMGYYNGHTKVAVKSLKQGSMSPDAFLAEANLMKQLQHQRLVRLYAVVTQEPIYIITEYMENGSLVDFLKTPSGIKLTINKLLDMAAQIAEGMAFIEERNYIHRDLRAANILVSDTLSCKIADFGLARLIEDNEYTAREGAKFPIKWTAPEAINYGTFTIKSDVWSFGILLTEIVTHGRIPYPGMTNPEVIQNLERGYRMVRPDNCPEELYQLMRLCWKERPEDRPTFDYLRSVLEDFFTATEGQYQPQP
Procedure: as §1, §2, §3

[14] = molecular target: IKKe (Homo sapiens, UniProt Q14164); conditions: 1 µM, assay duplicates
Procedure: as §1, §2, §3

[15] = molecular target: PKD1 (Homo sapiens, UniProt Q15139); conditions: 1 µM, assay duplicates
Procedure: as §1, §2, §3

[16] = molecular target: FGF-R1 (Homo sapiens, UniProt P11362); conditions: 1 µM, assay duplicates
Procedure: as §1, §2, §3

[17] = molecular target: RIPK2 (Homo sapiens, UniProt O43353); conditions: 1 µM, assay duplicates
Procedure: as §1, §2, §3

[18] = molecular target: LKB1 (Homo sapiens, UniProt Q15831); conditions: 1 µM, assay duplicates
Chain of LKB1 (Q15831 whole entry): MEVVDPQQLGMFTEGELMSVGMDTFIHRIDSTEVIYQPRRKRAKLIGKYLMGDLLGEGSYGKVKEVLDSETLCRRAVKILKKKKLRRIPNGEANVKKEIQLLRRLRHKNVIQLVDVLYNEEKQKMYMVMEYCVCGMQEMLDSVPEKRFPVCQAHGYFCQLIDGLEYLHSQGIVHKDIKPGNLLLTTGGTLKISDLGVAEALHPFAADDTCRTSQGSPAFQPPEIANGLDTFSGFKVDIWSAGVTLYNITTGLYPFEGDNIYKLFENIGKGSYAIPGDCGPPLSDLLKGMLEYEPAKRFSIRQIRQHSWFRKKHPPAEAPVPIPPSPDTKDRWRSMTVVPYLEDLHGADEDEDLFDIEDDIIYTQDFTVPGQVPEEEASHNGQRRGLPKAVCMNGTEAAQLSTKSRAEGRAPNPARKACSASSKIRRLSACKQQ
Chain of LKB1 (Q7RTN6 whole entry partner): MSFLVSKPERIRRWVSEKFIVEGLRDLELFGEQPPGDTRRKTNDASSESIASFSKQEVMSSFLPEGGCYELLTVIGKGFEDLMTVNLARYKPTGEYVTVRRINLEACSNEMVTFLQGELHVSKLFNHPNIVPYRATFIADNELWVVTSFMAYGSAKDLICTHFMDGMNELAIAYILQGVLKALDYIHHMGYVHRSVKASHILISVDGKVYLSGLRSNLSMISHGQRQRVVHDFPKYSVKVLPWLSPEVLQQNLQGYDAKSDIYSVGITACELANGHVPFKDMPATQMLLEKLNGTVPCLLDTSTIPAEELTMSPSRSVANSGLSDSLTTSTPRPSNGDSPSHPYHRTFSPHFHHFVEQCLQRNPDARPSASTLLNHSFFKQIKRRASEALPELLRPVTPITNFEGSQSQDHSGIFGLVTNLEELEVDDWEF
Chain of LKB1 (Q9Y376 whole entry partner): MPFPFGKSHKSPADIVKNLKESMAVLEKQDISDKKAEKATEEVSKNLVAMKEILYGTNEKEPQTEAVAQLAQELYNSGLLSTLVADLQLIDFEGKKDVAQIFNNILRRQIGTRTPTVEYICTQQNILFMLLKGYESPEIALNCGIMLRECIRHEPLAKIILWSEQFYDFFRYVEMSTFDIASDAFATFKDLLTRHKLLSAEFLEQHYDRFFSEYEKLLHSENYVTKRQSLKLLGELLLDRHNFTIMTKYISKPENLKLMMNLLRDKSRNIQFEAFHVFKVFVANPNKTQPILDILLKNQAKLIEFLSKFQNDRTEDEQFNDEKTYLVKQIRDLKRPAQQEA
Procedure: as §1, §2, §3

[19] = molecular target: IGF-1R (Homo sapiens, UniProt P08069); conditions: 1 µM, assay duplicates
Procedure: as §1, §2, §3

[20] = molecular target: MLK1 (Homo sapiens, UniProt P80192); conditions: for MLK1 inhibition: 1 μM; for MLK1 % activity remaining: 1 µM, assay duplicates
Chain of MLK1 (P80192 whole entry): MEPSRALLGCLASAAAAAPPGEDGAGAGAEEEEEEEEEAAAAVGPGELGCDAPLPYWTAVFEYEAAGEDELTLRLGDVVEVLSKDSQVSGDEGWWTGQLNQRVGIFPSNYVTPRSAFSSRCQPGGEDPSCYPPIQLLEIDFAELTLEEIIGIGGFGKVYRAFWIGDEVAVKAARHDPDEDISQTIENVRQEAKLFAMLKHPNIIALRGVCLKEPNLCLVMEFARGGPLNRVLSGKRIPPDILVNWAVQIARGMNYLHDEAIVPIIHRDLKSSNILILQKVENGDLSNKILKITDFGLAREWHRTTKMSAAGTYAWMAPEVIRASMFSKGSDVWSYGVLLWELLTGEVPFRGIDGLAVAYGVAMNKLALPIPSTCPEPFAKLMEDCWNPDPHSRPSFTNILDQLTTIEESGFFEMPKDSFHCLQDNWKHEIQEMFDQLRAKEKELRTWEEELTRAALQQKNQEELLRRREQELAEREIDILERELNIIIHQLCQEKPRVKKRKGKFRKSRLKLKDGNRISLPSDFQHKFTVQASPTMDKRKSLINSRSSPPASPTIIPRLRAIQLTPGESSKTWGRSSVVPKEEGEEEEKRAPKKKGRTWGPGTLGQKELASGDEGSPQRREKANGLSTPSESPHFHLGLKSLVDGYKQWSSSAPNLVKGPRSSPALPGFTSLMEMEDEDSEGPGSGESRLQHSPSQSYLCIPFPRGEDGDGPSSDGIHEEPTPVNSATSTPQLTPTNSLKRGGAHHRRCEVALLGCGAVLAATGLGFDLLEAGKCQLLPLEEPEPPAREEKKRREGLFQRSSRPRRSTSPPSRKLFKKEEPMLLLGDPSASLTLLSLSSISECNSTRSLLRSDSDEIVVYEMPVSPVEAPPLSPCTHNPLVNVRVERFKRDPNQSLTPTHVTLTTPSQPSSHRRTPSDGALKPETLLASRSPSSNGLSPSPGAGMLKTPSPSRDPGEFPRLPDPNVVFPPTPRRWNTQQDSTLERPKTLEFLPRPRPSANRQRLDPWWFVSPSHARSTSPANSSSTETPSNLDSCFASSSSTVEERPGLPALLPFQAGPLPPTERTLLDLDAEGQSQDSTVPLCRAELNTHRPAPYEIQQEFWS
Procedure: as §1, §2, §3

[21] = molecular target: EF2K (Homo sapiens, UniProt O00418); conditions: 1 µM, assay duplicates
Procedure: as §1, §2, §3

[22] = molecular target: JNK2 (Homo sapiens, UniProt P45984); conditions: 1 µM, assay duplicates
Procedure: as §1, §2, §3

[23] = molecular target: PKBb (Homo sapiens, UniProt P31751); conditions: 1 µM, assay duplicates
Procedure: as §1, §2, §3

[24] = molecular target: CK2 (Homo sapiens, UniProt P68400); conditions: 1 µM, assay duplicates
Procedure: as §1, §2, §3

[25] = molecular target: MNK2 (Homo sapiens, UniProt Q9HBH9); conditions: 1 µM, assay duplicates
Procedure: as §1, §2, §3

[26] = molecular target: CSK (Homo sapiens, UniProt P41240); conditions: 1 µM, assay duplicates
Procedure: as §1, §2, §3

[27] = molecular target: MAPKAP-K2 (Homo sapiens, UniProt P49137); conditions: 1 µM, assay duplicates
Procedure: as §1, §2, §3

[28] = molecular target: PAK6 (Homo sapiens, UniProt Q9NQU5); conditions: 1 µM, assay duplicates
Procedure: as §1, §2, §3

[29] = molecular target: IKKb (Homo sapiens, UniProt O14920); conditions: 1 µM, assay duplicates
Procedure: as §1, §2, §3

[30] = molecular target: PAK5 (Homo sapiens, UniProt Q9P286); conditions: 1 µM, assay duplicates
Procedure: as §1, §2, §3

Row | Compound | ERK8 inhibition [1] | ERK8 % activity remaining [1] | HIPK3 % activity remaining [2] | HIPK1 % activity remaining [3] | PRAK % activity remaining [4] | MINK1 % activity remaining [5] | MLK3 % activity remaining [6] | Aurora A % activity remaining [7] | SGK1 % activity remaining [8] | PAK2 % activity remaining [9] | MNK1 % activity remaining [10] | CHK2 % activity remaining [11] | p38d MAPK % activity remaining [12] | Lck % activity remaining [13] | IKKe % activity remaining [14] | PKD1 % activity remaining [15] | FGF-R1 % activity remaining [16] | RIPK2 % activity remaining [17] | LKB1 % activity remaining [18] | IGF-1R % activity remaining [19] | also measured
1 | Cc1nn(C)cc1-c1nc2c(-c3cnn(Cc4ccccc4)c3)c(Cl)cnc2[nH]1 [Compound 7a] | greater than 80% | 6% | 9% | 3% | 83% | 28% | 2% | 1% | 56% | 82% | 55% | 26% | 18% | 61% | 53% | 76% | 5% | 40% | 49% | 10% | MLK1 inhibition [20]: greater than 80%; MLK1 % activity remaining [20]: 3%; EF2K % activity remaining [21]: 94%; JNK2 % activity remaining [22]: 17%; PKBb % activity remaining [23]: 62%; CK2 % activity remaining [24]: 62%; MNK2 % activity remaining [25]: 44%; CSK % activity remaining [26]: 59%; MAPKAP-K2 % activity remaining [27]: 84%; PAK6 % activity remaining [28]: 42%; IKKb % activity remaining [29]: 48%; PAK5 % activity remaining [30]: 36%
2 | Cc1cc(Cn2cc(-c3c(Cl)cnc4[nH]c(-c5cn(C)nc5C)nc34)cn2)no1 [Compound 14d] | ≥ 80% | 1% | 49% | 22% | 100% | 86% | 6% | 1% | 65% | 102% | 64% | 32% | 41% | 34% | 3% | 97% | 7% | 49% | 62% | 5% | MLK1 inhibition [20]: ≥ 80%; MLK1 % activity remaining [20]: 8%; EF2K % activity remaining [21]: 102%; JNK2 % activity remaining [22]: 48%; PKBb % activity remaining [23]: 94%; CK2 % activity remaining [24]: 57%; MNK2 % activity remaining [25]: 32%; CSK % activity remaining [26]: 83%; MAPKAP-K2 % activity remaining [27]: 100%; PAK6 % activity remaining [28]: 45%; IKKb % activity remaining [29]: 63%; PAK5 % activity remaining [30]: 41%
